Species on record: Rattus norvegicus
Assay: Open TG-GATES - Regimen: Daily Repeat
Format: toxicity, organism-based, Sprague-Dawley
Design: regimen Daily Repeat, gender Male, age 6 weeks
Conditions: in vivo, po, 30 mg/kg, route gavage, dose level Middle; for APTT / Bas / Eos / Fbg / Hb / Ht / Lym / MCH / MCHC / MCV / Mono / Neu / PT / Plat / RBC / Ret / WBC: tissue Blood; for KIDNEY_L / KIDNEY_R / KIDNEY_TOTAL: tissue Kidney; for LIVER: tissue Liver; for A/G / ALP / ALT / AST / BUN / CRE / Ca / Cl / DBIL / GLC / IP / K / LDH / Na / PL / RALB / TBIL / TC / TG / TP / gamma-GTP: tissue Plasma

CCCc1cc(=O)[nH]c(=S)[nH]1 [PROPYLTHIOURACIL]
TERMINAL_BW (72 h, time 3 day): 205.6 g
APTT (72 h, time 3 day): 15.9 s
Bas (72 h, time 3 day): 0%
Eos (72 h, time 3 day): 0.4%
Fbg (72 h, time 3 day): 242.4 mg/dL
Hb (72 h, time 3 day): 13.6 g/dL
Ht (72 h, time 3 day): 40.9%
Lym (72 h, time 3 day): 73%
MCH (72 h, time 3 day): 21.9 pg
MCHC (72 h, time 3 day): 33.3%
MCV (72 h, time 3 day): 65.7 fL
Mono (72 h, time 3 day): 7.4%
Neu (72 h, time 3 day): 19.2%
PT (72 h, time 3 day): 12.2 s
Plat (72 h, time 3 day): 114 x10_4/uL
RBC (72 h, time 3 day): 623 x10_4/ul
Ret (72 h, time 3 day): 6.7%
WBC (72 h, time 3 day): 122.6 x10_2/uL
KIDNEY_L (72 h, time 3 day): 0.9 g
KIDNEY_R (72 h, time 3 day): 0.9 g
KIDNEY_TOTAL (72 h, time 3 day): 1.8 g
LIVER (72 h, time 3 day): 11.4 g
A/G (72 h, time 3 day): 1.8
ALP (72 h, time 3 day): 907.2 IU/L
ALT (72 h, time 3 day): 36 IU/L
AST (72 h, time 3 day): 64 IU/L
BUN (72 h, time 3 day): 18.2 mg/dL
CRE (72 h, time 3 day): 0.5 mg/dL
Ca (72 h, time 3 day): 11.3 mg/dL
Cl (72 h, time 3 day): 106 meq/L
DBIL (72 h, time 3 day): 0.024 mg/dL
GLC (72 h, time 3 day): 192 mg/dL
IP (72 h, time 3 day): 7.6 mg/dL
K (72 h, time 3 day): 4.6 meq/L
LDH (72 h, time 3 day): 150.8 IU/L
Na (72 h, time 3 day): 138.4 meq/L
PL (72 h, time 3 day): 183 mg/dL
RALB (72 h, time 3 day): 3.9 g/dL
TBIL (72 h, time 3 day): 0.3 mg/dL
TC (72 h, time 3 day): 106.4 mg/dL
TG (72 h, time 3 day): 97 mg/dL
TP (72 h, time 3 day): 6 g/dL
gamma-GTP (72 h, time 3 day): 1.2 IU/L
TERMINAL_BW ([…], time 7 day): 228.6 g
TERMINAL_BW ([…], time 14 day): 248.6 g
TERMINAL_BW ([…], time 28 day): 242.7 g
APTT ([…], time 7 day): 16.2 s
Bas ([…], time 7 day): 0%
Eos ([…], time 7 day): 0.2%
Fbg ([…], time 7 day): 264 mg/dL
Hb ([…], time 7 day): 13.7 g/dL
Ht ([…], time 7 day): 40.3%
Lym ([…], time 7 day): 82.4%
MCH ([…], time 7 day): 21.5 pg
MCHC ([…], time 7 day): 34.1%
MCV ([…], time 7 day): 63.2 fL
Mono ([…], time 7 day): 8.4%
Neu ([…], time 7 day): 9%
PT ([…], time 7 day): 12.9 s
Plat ([…], time 7 day): 122.5 x10_4/uL
RBC ([…], time 7 day): 638 x10_4/ul
Ret ([…], time 7 day): 3.7%
WBC ([…], time 7 day): 123.8 x10_2/uL
APTT ([…], time 14 day): 16.6 s
Bas ([…], time 14 day): 0%
Eos ([…], time 14 day): 0.2%
Fbg ([…], time 14 day): 204.2 mg/dL
Hb ([…], time 14 day): 14.8 g/dL
Ht ([…], time 14 day): 43.8%
Lym ([…], time 14 day): 86.2%
MCH ([…], time 14 day): 21 pg
MCHC ([…], time 14 day): 33.7%
MCV ([…], time 14 day): 62.2 fL
Mono ([…], time 14 day): 3.6%
Neu ([…], time 14 day): 10%
PT ([…], time 14 day): 13.8 s
Plat ([…], time 14 day): 89 x10_4/uL
RBC ([…], time 14 day): 705.4 x10_4/ul
Ret ([…], time 14 day): 1.5%
WBC ([…], time 14 day): 134 x10_2/uL
APTT ([…], time 28 day): 15.1 s
Bas ([…], time 28 day): 0%
Eos ([…], time 28 day): 1%
Fbg ([…], time 28 day): 171 mg/dL
Hb ([…], time 28 day): 15.8 g/dL
Ht ([…], time 28 day): 46.9%
Lym ([…], time 28 day): 85.2%
MCH ([…], time 28 day): 19.5 pg
MCHC ([…], time 28 day): 33.7%
MCV ([…], time 28 day): 57.7 fL
Mono ([…], time 28 day): 3%
Neu ([…], time 28 day): 10.8%
PT ([…], time 28 day): 14.2 s
Plat ([…], time 28 day): 82.1 x10_4/uL
RBC ([…], time 28 day): 813.2 x10_4/ul
Ret ([…], time 28 day): 0.6%
WBC ([…], time 28 day): 63 x10_2/uL
KIDNEY_L ([…], time 7 day): 0.9 g
KIDNEY_R ([…], time 7 day): 0.9 g
KIDNEY_TOTAL ([…], time 7 day): 1.8 g
KIDNEY_L ([…], time 14 day): 0.9 g
KIDNEY_R ([…], time 14 day): 0.9 g
KIDNEY_TOTAL ([…], time 14 day): 1.9 g
KIDNEY_L ([…], time 28 day): 0.8 g
KIDNEY_R ([…], time 28 day): 0.8 g
KIDNEY_TOTAL ([…], time 28 day): 1.6 g
LIVER ([…], time 7 day): 12.4 g
LIVER ([…], time 14 day): 11.5 g
LIVER ([…], time 28 day): 9.6 g
A/G ([…], time 7 day): 1.7
ALP ([…], time 7 day): 735.2 IU/L
ALT ([…], time 7 day): 31.6 IU/L
AST ([…], time 7 day): 54.8 IU/L
BUN ([…], time 7 day): 21.8 mg/dL
CRE ([…], time 7 day): 0.5 mg/dL
Ca ([…], time 7 day): 11.6 mg/dL
Cl ([…], time 7 day): 106 meq/L
DBIL ([…], time 7 day): 0.018 mg/dL
GLC ([…], time 7 day): 173.6 mg/dL
IP ([…], time 7 day): 6.8 mg/dL
K ([…], time 7 day): 4.6 meq/L
LDH ([…], time 7 day): 85.8 IU/L
Na ([…], time 7 day): 140.6 meq/L
PL ([…], time 7 day): 170.6 mg/dL
RALB ([…], time 7 day): 4.2 g/dL
TBIL ([…], time 7 day): 0.3 mg/dL
TC ([…], time 7 day): 111.2 mg/dL
TG ([…], time 7 day): 80.2 mg/dL
TP ([…], time 7 day): 6.7 g/dL
gamma-GTP ([…], time 7 day): 2.2 IU/L
A/G ([…], time 14 day): 1.7
ALP ([…], time 14 day): 562.2 IU/L
ALT ([…], time 14 day): 27.6 IU/L
AST ([…], time 14 day): 51.2 IU/L
BUN ([…], time 14 day): 24.2 mg/dL
CRE ([…], time 14 day): 0.7 mg/dL
Ca ([…], time 14 day): 11.5 mg/dL
Cl ([…], time 14 day): 106.8 meq/L
DBIL ([…], time 14 day): 0.004 mg/dL
GLC ([…], time 14 day): 180.6 mg/dL
IP ([…], time 14 day): 6.4 mg/dL
K ([…], time 14 day): 4 meq/L
LDH ([…], time 14 day): 70.2 IU/L
Na ([…], time 14 day): 141.4 meq/L
PL ([…], time 14 day): 157.4 mg/dL
RALB ([…], time 14 day): 4.3 g/dL
TBIL ([…], time 14 day): 0.2 mg/dL
TC ([…], time 14 day): 103 mg/dL
TG ([…], time 14 day): 43.4 mg/dL
TP ([…], time 14 day): 6.9 g/dL
gamma-GTP ([…], time 14 day): 2.2 IU/L
A/G ([…], time 28 day): 2
ALP ([…], time 28 day): 475.4 IU/L
ALT ([…], time 28 day): 34 IU/L
AST ([…], time 28 day): 58.4 IU/L
BUN ([…], time 28 day): 27.2 mg/dL
CRE ([…], time 28 day): 0.7 mg/dL
Ca ([…], time 28 day): 10.8 mg/dL
Cl ([…], time 28 day): 108.8 meq/L
DBIL ([…], time 28 day): 0.062 mg/dL
GLC ([…], time 28 day): 168.6 mg/dL
IP ([…], time 28 day): 5.4 mg/dL
K ([…], time 28 day): 4.3 meq/L
LDH ([…], time 28 day): 71.4 IU/L
Na ([…], time 28 day): 142.2 meq/L
PL ([…], time 28 day): 165.8 mg/dL
RALB ([…], time 28 day): 4.5 g/dL
TBIL ([…], time 28 day): 0.2 mg/dL
TC ([…], time 28 day): 105.4 mg/dL
TG ([…], time 28 day): 46.8 mg/dL
TP ([…], time 28 day): 6.8 g/dL
gamma-GTP ([…], time 28 day): 2.4 IU/L

From ChEMBL document CHEMBL3885861, “Open TG-GATES”
